The text below walks through data of patent US20250051347A1, “BIFUNCTIONAL CHIMERIC HETEROCYCLIC COMPOUND AND USE THEREOF AS ANDROGEN RECEPTOR DEGRADER” (Hinova Pharmaceuticals, Inc., priority 2021, published 2025).

Read-outs that look alike come from different tables or passages of the source.

Assay [1] deals with T1, androgen receptor (AR) splicing variant AR-v7 (Homo sapiens, UniProt P10275).
T1 construct: The degradation activity of compounds on AR-v7 in 22RV1 cells; host or cells: 22RV1 cells
T1 sequence (P10275 1-644 isoform P10275-3): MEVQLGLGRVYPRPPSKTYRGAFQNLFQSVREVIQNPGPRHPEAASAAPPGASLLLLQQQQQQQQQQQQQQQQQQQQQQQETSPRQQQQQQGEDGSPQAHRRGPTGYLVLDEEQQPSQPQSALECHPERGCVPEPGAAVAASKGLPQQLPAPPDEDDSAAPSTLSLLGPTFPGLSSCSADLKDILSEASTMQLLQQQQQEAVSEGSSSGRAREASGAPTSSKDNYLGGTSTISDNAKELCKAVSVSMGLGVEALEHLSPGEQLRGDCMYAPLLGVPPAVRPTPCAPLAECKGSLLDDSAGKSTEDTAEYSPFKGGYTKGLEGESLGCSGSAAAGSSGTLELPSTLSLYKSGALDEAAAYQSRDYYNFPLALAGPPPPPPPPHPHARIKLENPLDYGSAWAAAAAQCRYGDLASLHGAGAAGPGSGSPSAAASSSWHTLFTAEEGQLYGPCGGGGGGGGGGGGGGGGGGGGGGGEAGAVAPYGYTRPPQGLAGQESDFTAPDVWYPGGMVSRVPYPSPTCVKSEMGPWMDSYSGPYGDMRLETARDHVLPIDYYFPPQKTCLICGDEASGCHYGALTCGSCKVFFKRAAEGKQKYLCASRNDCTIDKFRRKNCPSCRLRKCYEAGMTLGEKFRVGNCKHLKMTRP
Kind of assay: Degradation activity on androgen receptor splicing variant AR-v7 in 22RV1 cells (ELISA). It counts as cell-based. As to conditions: AR-v7 degradation in 22RV1 cells, 48 h, class symbols.

Setting [2] is: Homo sapiens, 22Rv1, 144 h, read-out: 22RV1 IC50 (nM), 22RV1 cells, 6 days culture, CCK-8, OD 450 nm.
Setting [3] is: read-out: 22RV1 IC50, 22RV1 cells, 6 days culture, CCK-8, OD 450 nm.

As for `CN(C)C(=O)c1noc(COc2ccc(C(C)(C)c3ccc(OCCCNc4cccc5c4C(=O)N(C4CCC(=O)NC4=O)C5=O)cc3)cc2)n1` (stereo not drawn) [Example 181, 5-((4-(2-(4-(3-((2-(2,6-dioxopiperidin-3-yl)-1,3-dioxoisoindolin-4-yl)amino)propoxy)phenyl)propan-2-yl)phenoxy)methyl)-N,N-dimethyl-1,2,4-oxadiazol-3-carbonylamine], in assay [1], the DC50 lay in the range of 1000 to 5000 nM. Also, the IC50 in the assay on 22RV1 cells (setting [2]) turned out to be 140 nM.

`Cc1nc(COc2ccc(C(C)(C)c3ccc(OCCCNc4ccc5c(c4)C(=O)N(C4CCC(=O)NC4=O)C5=O)cc3)cc2)cs1` (stereo not drawn) [Example 225, 2-(2,6-dioxopiperidin-3-yl)-5-((3-(4-(2-(4-((2-methylthiazol-4-yl)methoxy)phenyl)propan-2-yl)phenoxy)propyl)amino)isoindolin-1,3-dione] yielded a DC50 in assay [1] of 11 to 100 nM. For the same compound, the half-inhibitory concentration (IC50) in the assay on 22RV1 cells (setting [2]) came to 60 nM.

`Cc1nnc(-c2nccc(COc3ccc(C(C)(C)c4ccc(O[C@H]5C[C@@H](Nc6ccc7c(c6)C(=O)N(C6CCC(=O)NC6=O)C7=O)C5)cc4)cc3)n2)o1` (stereo partly drawn) [Example 465]: in assay [1], the DC50 is below 10 nM. For the same compound, in the assay with 22RV1 cells (setting [2]), the half-inhibitory concentration (IC50) was 3 nM.

`CC(=O)c1cnc(Oc2ccc(C(C)(C)c3ccc(O[C@H]4C[C@@H](Nc5ccc6c(c5)C(=O)N(C5CCC(=O)NC5=O)C6=O)C4)cc3)cc2)cn1` (stereo partly drawn) [Example 130] had a DC50 in assay [1] below 10 nM. In the assay with 22RV1 cells (setting [2]), the half-inhibitory concentration (IC50) was 13 nM.

`CC(C)(c1ccc(OCc2ccnc(-n3ccnn3)n2)cc1)c1ccc(O[C@H]2C[C@H](Nc3ccc4c(c3)C(=O)N(C3CCC(=O)NC3=O)C4=O)C2)cc1` (stereo partly drawn) [Example 230]: in assay [1], the DC50 is below 10 nM. The IC50 in the assay on 22RV1 cells (setting [2]) is 9 nM.

`CC(C)(c1ccc(OCc2ccnc(C#N)n2)cc1)c1ccc(O[C@H]2C[C@@H](Nc3ccc4c(c3)C(=O)N(C3CCC(=O)NC3=O)C4=O)C2)cc1` (stereo partly drawn) [Example 277, 4-((4-(2-(4-((1s,3s)-3-((2-(2,6-dioxopiperidin-3-yl)-1,3-dioxoisoindolin-5-yl)amino)cyclobutyloxy)phenyl)propan-2-yl)phenoxy)methyl)pyrimidin-2-carbonitrile] yielded a half-maximal degradation concentration (DC50) in assay [1] below 10 nM. For the same compound, the IC50 in the assay on 22RV1 cells (setting [2]) was 5 nM.

Consider `CC(=O)c1cnc(Oc2ccc(C3(c4ccc(OC5CC(Nc6ccc7c(c6)C(=O)N(C6CCC(=O)NC6=O)C7=O)C5)cc4)CCCC3)cc2)cn1` (stereo not drawn) [Example 177, 5-(((1r,3r)-3-(4-(1-(4-((5-acetylpyrazin-2-yl)oxy)phenyl)cyclopentyl)phenoxy)cyclobutyl)amino)-2-(2,6-dioxopiperidin-3-yl)isoindolin-1,3-dione], for which the DC50 in assay [1] is below 10 nM. Besides, the IC50 in the assay with 22RV1 cells (setting [3]) turned out to be 2 nM.

As to `CCC(CC)(c1ccc(Oc2ccc(C(C)=O)nn2)cc1)c1ccc(OC2CC(Nc3ccc4c(c3)C(=O)N(C3CCC(=O)NC3=O)C4=O)C2)cc1` (stereo not drawn) [Example 431, 5-((1s,3s)-3-(4-(3-(4-((6-acetylpyridazine-3-yl)oxy)phenyl)pentan-3-yl)phenoxy)cyclobutyl)amino)-2-(2,6-dioxopyridin-3-yl)isoindol-1,3-dione], the 50% degradation concentration (DC50) in assay [1] was below 10 nM. Besides, the IC50 in the assay on 22RV1 cells (setting [3]) amounted to 4 nM.

In assay [1], `CC(C)(c1ccc(Oc2cccc(-n3nccn3)n2)cc1)c1ccc(O[C@H]2C[C@H](Nc3ccc4c(c3)C(=O)N(C3CCC(=O)NC3=O)C4=O)C2)cc1` (stereo partly drawn) [Example 256, 5-((1r,3r)-3-(4-(2-(4-((6-(2H-1,2,3-triazol-2-yl)pyridin-2-yl)oxy)phenyl)propan-2-ylphenoxy)cyclobutyl)amino)-2-(2,6-dioxopiperidin-3-yl)isoindolin-1,3-dione] returned a DC50 below 10 nM. Besides, the concentration for half-maximal inhibition (IC50) with 22RV1 cells (setting [2]) came out at 2 nM.

In assay [1], `Cc1nnc(-c2ncc(Oc3ccc(C4(c5ccc(O[C@H]6C[C@H](Nc7ccc8c(c7)C(=O)N(C7CCC(=O)NC7=O)C8=O)C6)cc5)CC4)cc3)cn2)o1` (stereo partly drawn) [Example 379, 2-(2,6-dioxopiperidin-3-yl)-5-(((1r,3r)-3-(4-(1-(4-((2-(5-methyl-1,3,4-oxadiazol-2-yl)pyrimidin-5-yl)oxy)phenyl)cyclopropyl)phenoxy)cyclobutyl)amino)isoindolin-1,3-dione] yielded a DC50 of 11 to 100 nM. Also, the concentration for half-maximal inhibition (IC50) with 22RV1 cells (setting [2]) was 17 nM.

With `CC(C)(c1ccc(Oc2cccnn2)cc1)c1ccc(O[C@H]2C[C@H](Nc3ccc4c(c3)C(=O)N(C3CCC(=O)NC3=O)C4=O)C2)cc1` (stereo partly drawn) [Example 333, 2-(2,6-dioxopiperidin-3-yl)-5-((1r,3r)-3-(4-(2-(4-(pyridazine-3-oxy)phenyl)propan-2-yl)phenoxy)cyclobutyl)aminoisoindolin-1,3-dione], the DC50 in assay [1] is below 10 nM. Also, the IC50 with 22RV1 cells (setting [2]) was determined as 3 nM.

In assay [1], `CC(C)(c1ccc(OCc2cccc(-n3nccn3)n2)cc1)c1ccc(O[C@H]2C[C@H](Nc3ccc4c(c3)C(=O)N(C3CCC(=O)NC3=O)C4=O)C2)cc1` (stereo partly drawn) [Example 419] registered a DC50 below 10 nM. In the assay with 22RV1 cells (setting [2]), the IC50 was 8 nM.

As to `CN1CCN(c2nccc(COc3ccc(C(C)(C)c4ccc(OCCCNc5ccc6c(c5)C(=O)N(C5CCC(=O)NC5=O)C6=O)cc4)cc3)n2)CC1` (stereo not drawn) [Example 72], the DC50 in assay [1] lay in the range of 11 to 100 nM. Moreover, the 50% inhibitory concentration (IC50) with 22RV1 cells (setting [2]) turned out to be 37 nM.

With `Cc1noc(-c2ccc(Oc3ccc(C(C)(C)c4ccc(O[C@H]5C[C@H](Nc6ccc7c(c6)C(=O)N(C6CCC(=O)NC6=O)C7=O)C5)cc4)cc3)nn2)n1` (stereo partly drawn) [Example 331], in assay [1], the half-maximal degradation concentration (DC50) is below 10 nM. For the same compound, the IC50 with 22RV1 cells (setting [2]) is 18 nM.

Take `CC(=O)c1ncc(Oc2ccc(C3(c4ccc(O[C@H]5C[C@H](Nc6ccc7c(c6)C(=O)N(C6CCC(=O)NC6=O)C7=O)C5)cc4)CCCCC3)cc2)cn1` (stereo partly drawn) [Example 529]: the DC50 in assay [1] was below 10 nM. Moreover, the IC50 with 22RV1 cells (setting [2]) was 2 nM.

Take `CC(C)(c1ccc(OCCCNc2ccc3c(c2)C(=O)N(C2CCC(=O)NC2=O)C3=O)cc1)c1ccc(OCc2ccnc(-n3ccnn3)n2)cc1` (stereo not drawn) [Example 228, 5-((3-(4-(2-(4-((2-(1H-1,2,3-triazol-1-yl)pyrimidin-4-yl)methoxy)phenyl)propan-2-yl)phenoxy)propyl)amino)-2-(2,6-dioxopiperidin-3-yl)isoindolin-1,3-dione]: the DC50 in assay [1] fell in the range of 11 to 100 nM. For the same compound, the IC50 with 22RV1 cells (setting [2]) is 22 nM.

Compound `Cn1cc(-c2nccc(COc3ccc(C(C)(C)c4ccc(O[C@H]5C[C@@H](Nc6ccc7c(c6)C(=O)N(C6CCC(=O)NC6=O)C7=O)C5)cc4)cc3)n2)cn1` (stereo partly drawn) [Example 270] showed a 50% degradation concentration (DC50) in assay [1] below 10 nM. For the same compound, the IC50 with 22RV1 cells (setting [2]) turned out to be 10 nM.

Consider `Cc1nc(-c2ncc(Oc3ccc(C4(c5ccc(O[C@H]6C[C@H](Nc7ccc8c(c7)C(=O)N(C7CCC(=O)NC7=O)C8=O)C6)cc5)CCOCC4)cc3)cn2)no1` (stereo partly drawn) [Example 382, 2-(2,6-dioxopiperidin-3-yl)-5-(((1r,3r)-3-(4-(4-(4-((2-(5-methyl-1,2,4-oxadiazol-3-yl)pyrimidin-5-yl)oxy)phenyl)tetrohydro-2H-pyran-4-yl)phenoxy)cyclobutyl)amino)isoindolin-1,3-dione], for which the DC50 in assay [1] is below 10 nM. Besides, the IC50 with 22RV1 cells (setting [2]) is below 1 nM.

`CC(C)(c1ccc(OCc2cccc(N3CC4(COC4)C3)n2)cc1)c1ccc(O[C@H]2C[C@H](Nc3ccc4c(c3)C(=O)N(C3CCC(=O)NC3=O)C4=O)C2)cc1` (stereo partly drawn) [Example 413] displayed a half-maximal degradation concentration (DC50) in assay [1] below 10 nM. Moreover, the IC50 in the assay with 22RV1 cells (setting [2]) was determined as 11 nM.

`CCC(O)c1ncc(Oc2ccc(C(C)(C)c3ccc(O[C@H]4C[C@H](Nc5ccc6c(c5)C(=O)N(C5CCC(=O)NC5=O)C6=O)C4)cc3)cc2)cn1` (stereo partly drawn) [Example 428] displayed a DC50 in assay [1] below 10 nM. For the same compound, the concentration for half-maximal inhibition (IC50) with 22RV1 cells (setting [2]) was found to be 6 nM.

Turning to `CN(C)C1CN(c2nccc(COc3ccc(C(C)(C)c4ccc(O[C@H]5C[C@@H](Nc6ccc7c(c6)C(=O)N(C6CCC(=O)NC6=O)C7=O)C5)cc4)cc3)n2)C1` (stereo partly drawn) [Example 400], the DC50 in assay [1] was below 10 nM. For the same compound, the IC50 in the assay with 22RV1 cells (setting [2]) is 10 nM.

As to `CC(C)(c1ccc(OCc2ccnc(N3CC4(CCOC4)C3)n2)cc1)c1ccc(O[C@H]2C[C@@H](Nc3ccc4c(c3)C(=O)N(C3CCC(=O)NC3=O)C4=O)C2)cc1` (stereo partly drawn) [Example 88, 5-(((1s,3s)-3-(4-(2-(4-((2-(6-oxa-2-azaspiro[3.4]octan-2-yl)pyrimidin-4-yl)methoxy)phenyl)propan-2-yl)phenoxy)cyclobutyl)amino)-2-(2,6-dioxopiperidin-3-yl)isoindolin-1,3-dione], the DC50 in assay [1] is below 10 nM. Further, in the assay with 22RV1 cells (setting [2]), the IC50 was found to be 15 nM.

`Cc1nccc(Oc2ccc(C(C)(C)c3ccc(O[C@H]4C[C@H](Nc5ccc6c(c5)C(=O)N(C5CCC(=O)NC5=O)C6=O)C4)cc3)cc2)n1` (stereo partly drawn) [Example 197]: the DC50 in assay [1] was below 10 nM. For the same compound, the concentration for half-maximal inhibition (IC50) in the assay on 22RV1 cells (setting [2]) worked out at 5 nM.

Take `CC(C)(c1ccc(Oc2ccc(N3CC(N4CC(F)C4)C3)nn2)cc1)c1ccc(O[C@H]2C[C@H](Nc3ccc4c(c3)C(=O)N(C3CCC(=O)NC3=O)C4=O)C2)cc1` (stereo partly drawn) [Example 258]: the DC50 in assay [1] is 101 to 1000 nM. For the same compound, the IC50 in the assay with 22RV1 cells (setting [2]) stood at 8 nM.

Usually DC50 stands for the concentration giving 50% degradation. A higher DC50 goes with degradation only at high concentration. For orientation: IC50 means the concentration at which inhibition is half-maximal.
